Legend:
integrin αIIbβ3 = test system: integrin αIIbβ3; set-up: method as in Henderson et al., 2013; settings: no significant activity; ref Henderson et al., 2013; read-out: activity against integrin αIIbβ3; cited from earlier work
[1] = test system: aristolochic acid-induced kidney fibrosis in ICR mice; assay: aristolochic acid kidney injury model, kidney histology and immunofluorescence; format: in vivo, mouse; settings: AA-injured, 100 mg/kg/day s.c. minipump
Procedure: (§1) Alzet osmotic minipumps (Cupertino, CA) were implanted subcutaneously in 8‐ to 10‐week‐old wild‐type male ICR outbred mice (Envigo) one day prior to induction of kidney injury to deliver vehicle (DMSO/H2O 1:1) or CWHM‐12 at a dose of 100 mg/kg per day. A single 5 mg/kg dose of aristolochic acid I sodium salt (Sigma‐Aldrich, A9451) in PBS was administered intraperitoneally to induce kidney injury, and mice were monitored daily for 27 days thereafter. Control (uninjured) mice were injected with an equal volume of PBS. Blood was obtained by maxillary vein puncture on days 0, 5 (peak injury), and 28 (study endpoint). For testing CWHM‐680, oral gavage (100 mg/kg per day) was started one day prior to injection of aristolochic acid I sodium salt and continued once daily until the study endpoint. Blood was obtained at days 0, 7, and 23 (study endpoint). […] Serum creatinine was measured by liquid chromatography–mass spectrometry (LC–MS/MS) at the University of Alabama O’Brien Center Bioanalytical Core. CWHM‐12 and CWHM‐680 concentrations were measured in plasma samples by liquid chromatography–tandem mass spectrometry (LC/MS/MS) using compound spiked into control plasma as a standard. All experiments were performed under protocols approved by the Institutional Animal Care and Use Committee at St. Louis University.
Harvested kidneys were bisected and harvested for RNA and protein, and fixed in 4% PFA for antibody staining and histological staining with Sirius red or Masson's trichrome. Paraffin sections (4 µm) were stained with Sirius red or Masson trichrome and imaged with polarized light and bright‐field illumination. For immunofluorescence, 7‐μm frozen sections were washed with ice‐cold 100% methanol, boiled in 10 mM citric acid (pH 6) for 20 min, and incubated with primary antibodies against αSMA (Millipore), PDGFR‐β (gift from B. Stallcup), or with biotin‐LTL (Vector Laboratories). Reactivity was detected using fluorescently labeled secondary antibodies. Sections were counterstained with DAPI (Sigma‐Aldrich), mounted in Mowiol 4–88 (Poly Sciences), and digital images acquired using a Leica DM5000B epifluorescence microscope and Leica DFC365FX camera. To quantify percent area stained for Sirius red, PDGFR‐β, and α‐SMA, we analyzed images from each of at least 4 biological replicates by batch processing using a macro created in Image J. Images were converted to 8‐bit grayscale, the threshold adjusted, and percent area measured. To quantify intact proximal tubules with brush borders, LTL‐positive tubules were counted by an observer blinded to the experimental conditions using Image J.

integrin α5β1 = molecular target: T1, integrin α5β1 (Homo sapiens, UniProt P05556+P08648); assay: integrin α5β1-mediated attachment of K562 cells to human plasma fibronectin; format: cell-based; settings: mean and SD, at least 3 independent assays, read-out: IC50, inhibition of α5β1-mediated cell attachment
T1 construct: K562 cells, which naturally express this integrin; endogenous in cells; host or cells: K562

[2] = plasma compound concentration by LC/MS/MS; format: in vivo, mouse; settings: 100 mg/kg per day s.c. by Alzet minipump
Procedure: as §1

[3] = test system: Collagen 1 protein in kidney; assay: aristolochic acid kidney injury model, Collagen 1 Western blot; format: in vivo, mouse; settings: AA-injured, 100 mg/kg/day s.c. minipump
Procedure: as §1, with “University. […]” for “University.”

T1 sequence (P08648 42-894 limits assumed): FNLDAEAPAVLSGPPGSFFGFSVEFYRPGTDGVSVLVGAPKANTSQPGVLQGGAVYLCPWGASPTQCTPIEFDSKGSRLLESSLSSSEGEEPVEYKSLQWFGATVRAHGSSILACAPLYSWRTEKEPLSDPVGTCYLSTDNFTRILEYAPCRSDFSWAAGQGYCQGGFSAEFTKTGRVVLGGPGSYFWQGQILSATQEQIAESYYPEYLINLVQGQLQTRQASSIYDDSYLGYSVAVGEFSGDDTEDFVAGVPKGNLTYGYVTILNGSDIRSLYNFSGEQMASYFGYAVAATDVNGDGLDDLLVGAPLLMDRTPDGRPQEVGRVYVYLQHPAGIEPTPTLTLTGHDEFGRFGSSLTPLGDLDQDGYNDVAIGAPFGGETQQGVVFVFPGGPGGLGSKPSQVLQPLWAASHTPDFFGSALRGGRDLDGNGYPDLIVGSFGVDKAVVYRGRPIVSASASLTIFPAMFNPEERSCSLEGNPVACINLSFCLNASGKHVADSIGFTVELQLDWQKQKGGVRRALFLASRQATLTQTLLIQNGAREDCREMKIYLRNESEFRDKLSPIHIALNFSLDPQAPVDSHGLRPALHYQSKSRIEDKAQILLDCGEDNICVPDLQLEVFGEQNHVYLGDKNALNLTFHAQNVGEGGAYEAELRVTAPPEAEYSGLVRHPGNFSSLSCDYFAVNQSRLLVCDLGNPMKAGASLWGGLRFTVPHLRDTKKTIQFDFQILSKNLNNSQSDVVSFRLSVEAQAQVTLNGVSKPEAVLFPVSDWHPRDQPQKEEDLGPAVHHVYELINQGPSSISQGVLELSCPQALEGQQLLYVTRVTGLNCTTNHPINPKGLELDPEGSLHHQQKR
T1 sequence (P08648 895-1049 partner limits assumed): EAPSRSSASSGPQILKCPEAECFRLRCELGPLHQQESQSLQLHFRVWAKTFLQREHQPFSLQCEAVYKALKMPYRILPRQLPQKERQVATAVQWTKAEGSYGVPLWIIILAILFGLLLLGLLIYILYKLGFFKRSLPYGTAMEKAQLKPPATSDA
T1 sequence (P05556 21-798): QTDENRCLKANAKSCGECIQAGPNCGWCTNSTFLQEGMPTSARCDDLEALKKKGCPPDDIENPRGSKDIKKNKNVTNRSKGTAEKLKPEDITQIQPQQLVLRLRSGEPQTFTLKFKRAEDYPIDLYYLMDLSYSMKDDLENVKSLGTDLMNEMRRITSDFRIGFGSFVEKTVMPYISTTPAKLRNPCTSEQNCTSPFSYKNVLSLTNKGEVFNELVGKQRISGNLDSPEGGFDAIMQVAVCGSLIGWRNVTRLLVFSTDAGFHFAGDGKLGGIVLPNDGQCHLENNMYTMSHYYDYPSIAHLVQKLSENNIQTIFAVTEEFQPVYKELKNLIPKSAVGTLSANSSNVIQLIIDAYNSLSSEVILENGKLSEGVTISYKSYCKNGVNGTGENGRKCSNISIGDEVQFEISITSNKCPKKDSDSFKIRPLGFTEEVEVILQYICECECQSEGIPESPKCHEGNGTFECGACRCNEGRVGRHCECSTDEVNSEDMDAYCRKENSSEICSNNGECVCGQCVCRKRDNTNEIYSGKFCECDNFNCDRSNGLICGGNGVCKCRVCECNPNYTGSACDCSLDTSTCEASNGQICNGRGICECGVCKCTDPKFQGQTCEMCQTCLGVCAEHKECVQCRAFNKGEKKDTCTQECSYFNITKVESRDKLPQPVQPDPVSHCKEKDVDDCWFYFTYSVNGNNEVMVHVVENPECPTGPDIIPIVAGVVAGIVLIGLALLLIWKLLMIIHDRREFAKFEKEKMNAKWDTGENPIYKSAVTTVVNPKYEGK

For `CC(C)(C)c1cc(Br)cc([C@H](CC(=O)O)NC(=O)CNC(=O)c2cc(O)cc(NC3=NCC(O)CN3)c2)c1` (stereo partly shown) [CWHM‐12], the IC50 (integrin αIIbβ3) is listed as > 5000 nM, the “Masson trichrome staining, collagen deposition vs vehicle” value [1] is listed as “reduced collagen deposition” and the “reduction in percent area stained for PDGFR‐β vs vehicle” value [1] is listed as 44%. For the same compound, the “reduction in percent area stained for αSMA vs vehicle” value [1] was 45%, the “reduction in percent area stained by Sirius red vs vehicle” value ([1]; day 27) was 68% and the “number of intact proximal tubules (LTL staining)” value ([1]; 27 days, vehicle 40.9 ± 1.6) was 57.1 ± 1.7. For the same compound, the IC50 (integrin α5β1) was 8 ± 3.9 nM, the “mean steady plasma drug concentration” value [2] was “approximately 5 µg/ml” and the “Collagen 1 protein reduction by Western blot compared with vehicle” value ([3]; day 27) was “threefold”. For the same compound, the “Collagen 1 densitometry normalized to HDAC2” value ([3]; vehicle 2.14 ± 0.39) was 0.719 ± 0.13 arbitrary units.
